From patent US6706740B2, “Fungicidal heterocyclic aromatic amides and their compositions, methods of use and preparation” (Dow AgroSciences LLC, priority 1999, dated 2004)

Tested on: Magnaporthe grisea (Pyricularia oryzae—PYRIOR)
Assay: microbe, parasite or virus in culture
Assay type: cell-based
Conditions: Pyricularia oryzae, read-out: PYRIOR in vitro Growth Inhibition

Row | SMILES | inhibition at 25 ppm
1 | COc1ccnc(C(=O)N[C@H]2COC(=O)[C@H](Cc3ccccc3)[C@@H](OC(=O)C(C)C)[C@H](C)OC2=O)c1OC(=O)C1CC1 [Compound 601] | < 80%
2 | COc1ccnc(C(=O)Nc2cccc(C(=O)Nc3ccc(C(F)(F)F)cc3)c2)c1O [Compound 450] | < 80%
3 | COc1ccnc(C(=O)N[C@H]2CC(=O)OCC(NC(=O)OC(C)(C)C)COC2=O)c1O (stereo partly drawn) [Compound 379] | < 80%

Tested on: Rhizoctonia solani (RHIZSO)
Assay: microbe, parasite or virus in culture
Assay type: cell-based
Conditions: Rhizoctonia solani, read-out: RHIZSO in vitro Growth Inhibition

Row | SMILES | inhibition at 25 ppm
4 | COc1ccnc(C(=O)N[C@H]2COC(=O)[C@H](Cc3ccccc3)[C@@H](OC(=O)C(C)C)[C@H](C)OC2=O)c1OC(=O)C1CC1 [Compound 601] | < 80%
5 | COc1ccnc(C(=O)Nc2cccc(C(=O)Nc3ccc(C(F)(F)F)cc3)c2)c1O [Compound 450] | < 80%
6 | COc1ccnc(C(=O)N[C@H]2CC(=O)OCC(NC(=O)OC(C)(C)C)COC2=O)c1O (stereo partly drawn) [Compound 379] | < 80%

Tested on: Mycosphaerella graminicola (Septoria tritici—SEPTTR)
Assay: In vitro fungal growth inhibition, Mycosphaerella graminicola (SEPTTR)
Assay type: cell-based
Conditions: Zymoseptoria tritici; 25 ppm in growth medium; read-out: SEPTTR in vitro Growth Inhibition

Row | SMILES | inhibition at 25 ppm
7 | COc1ccnc(C(=O)N[C@H]2COC(=O)[C@H](Cc3ccccc3)[C@@H](OC(=O)C(C)C)[C@H](C)OC2=O)c1OC(=O)C1CC1 [Compound 601] | < 80%
8 | COc1ccnc(C(=O)Nc2cccc(C(=O)Nc3ccc(C(F)(F)F)cc3)c2)c1O [Compound 450] | < 80%
9 | COc1ccnc(C(=O)N[C@H]2CC(=O)OCC(NC(=O)OC(C)(C)C)COC2=O)c1O (stereo partly drawn) [Compound 379] | < 80%

Tested on: Stagonospora nodorum (Leptosphaeria nodorum—LEPTNO)
Assay: In vitro fungal growth inhibition, Stagonospora nodorum (LEPTNO)
Assay type: cell-based
Conditions: Leptosphaeria; 25 ppm in growth medium; read-out: LEPTNO in vitro Growth Inhibition

Row | SMILES | inhibition at 25 ppm
10 | COc1ccnc(C(=O)N[C@H]2COC(=O)[C@H](Cc3ccccc3)[C@@H](OC(=O)C(C)C)[C@H](C)OC2=O)c1OC(=O)C1CC1 [Compound 601] | < 80%
11 | COc1ccnc(C(=O)Nc2cccc(C(=O)Nc3ccc(C(F)(F)F)cc3)c2)c1O [Compound 450] | < 80%
12 | COc1ccnc(C(=O)N[C@H]2CC(=O)OCC(NC(=O)OC(C)(C)C)COC2=O)c1O (stereo partly drawn) [Compound 379] | < 80%

Tested on: Ustilago maydis (USTIMA)
Assay: microbe, parasite or virus in culture
Assay type: cell-based
Conditions: Mycosarcoma maydis, read-out: USTIMA in vitro Growth Inhibition

Row | SMILES | inhibition at 25 ppm
13 | COc1ccnc(C(=O)N[C@H]2COC(=O)[C@H](Cc3ccccc3)[C@@H](OC(=O)C(C)C)[C@H](C)OC2=O)c1OC(=O)C1CC1 [Compound 601] | < 80%
14 | COc1ccnc(C(=O)Nc2cccc(C(=O)Nc3ccc(C(F)(F)F)cc3)c2)c1O [Compound 450] | < 80%
15 | COc1ccnc(C(=O)N[C@H]2CC(=O)OCC(NC(=O)OC(C)(C)C)COC2=O)c1O (stereo partly drawn) [Compound 379] | < 80%

Tested on: Phytophthora infestans (PHYTIN)
Assay: microbe, parasite or virus in culture
Assay type: cell-based
Conditions: Phytophthora infestans, read-out: PHYTIN in vitro Growth Inhibition

Row | SMILES | inhibition at 25 ppm
16 | COc1ccnc(C(=O)N[C@H]2COC(=O)[C@H](Cc3ccccc3)[C@@H](OC(=O)C(C)C)[C@H](C)OC2=O)c1OC(=O)C1CC1 [Compound 601] | < 80%
17 | COc1ccnc(C(=O)Nc2cccc(C(=O)Nc3ccc(C(F)(F)F)cc3)c2)c1O [Compound 450] | < 80%
18 | COc1ccnc(C(=O)N[C@H]2CC(=O)OCC(NC(=O)OC(C)(C)C)COC2=O)c1O (stereo partly drawn) [Compound 379] | < 80%

Tested on: Phytophthora infestans—PHYTIN
Assay: whole plant or invertebrate
Assay type: in vivo
Conditions: Phytophthora, in Solanum lycopersicum, 24 h, read-out: PHYTIN in vivo 1 Day Protectant

Row | SMILES | pest or weed control at 100 ppm
19 | COc1ccnc(C(=O)N[C@H]2COC(=O)[C@H](Cc3ccccc3)[C@@H](OC(=O)C(C)C)[C@H](C)OC2=O)c1OC(=O)C1CC1 [Compound 601] | < 25%
20 | COc1ccnc(C(=O)Nc2cccc(C(=O)Nc3ccc(C(F)(F)F)cc3)c2)c1O [Compound 450] | < 25%
21 | COc1ccnc(C(=O)N[C@H]2CC(=O)OCC(NC(=O)OC(C)(C)C)COC2=O)c1O (stereo partly drawn) [Compound 379] | < 25%

Tested on: Puccinia recondita—PUCCRT
Assay: Brown Rust of Wheat, in vivo whole plant, 24 Hour Protectant
Conditions: 100 ppm spray, wheat, 24 hour protectant, % control of fungal infection vs untreated plants

Row | SMILES | PUCCRT in vivo 1 Day Protectant
22 | COc1ccnc(C(=O)N[C@H]2COC(=O)[C@H](Cc3ccccc3)[C@@H](OC(=O)C(C)C)[C@H](C)OC2=O)c1OC(=O)C1CC1 [Compound 601] | + +

Same assay, conditions: Puccinia; 100 ppm spray, wheat, 24 hour protectant; control of fungal infection vs untreated plants; read-out: PUCCRT in vivo 1 Day Protectant

Row | SMILES | pest or weed control at 100 ppm
23 | COc1ccnc(C(=O)Nc2cccc(C(=O)Nc3ccc(C(F)(F)F)cc3)c2)c1O [Compound 450] | < 25%
24 | COc1ccnc(C(=O)N[C@H]2CC(=O)OCC(NC(=O)OC(C)(C)C)COC2=O)c1O (stereo partly drawn) [Compound 379] | 25 to 74%

Tested on: Erysiphe graminis—ERYSGT
Assay: Powdery Mildew of Wheat, in vivo whole plant, 24 Hour Protectant
Conditions: Erysiphe; 100 ppm spray, wheat, 24 hour protectant, % control of fungal infection vs untreated plants; read-out: ERYSGT in vivo 1 Day Protectant

Row | SMILES | pest or weed control at 100 ppm
25 | COc1ccnc(C(=O)N[C@H]2COC(=O)[C@H](Cc3ccccc3)[C@@H](OC(=O)C(C)C)[C@H](C)OC2=O)c1OC(=O)C1CC1 [Compound 601] | < 25%

Same assay, conditions: Erysiphe; 100 ppm spray, wheat, 24 hour protectant; control of fungal infection vs untreated plants; read-out: ERYSGT in vivo 1 Day Protectant

Row | SMILES | pest or weed control at 100 ppm
26 | COc1ccnc(C(=O)Nc2cccc(C(=O)Nc3ccc(C(F)(F)F)cc3)c2)c1O [Compound 450] | < 25%
27 | COc1ccnc(C(=O)N[C@H]2CC(=O)OCC(NC(=O)OC(C)(C)C)COC2=O)c1O (stereo partly drawn) [Compound 379] | 25 to 74%

Tested on: Septoria tritici—SEPTTR
Assay: Leaf Blotch of Wheat, in vivo whole plant, 24 Hour Protectant
Conditions: 100 ppm spray, wheat, 24 hour protectant, % control of fungal infection vs untreated plants

Row | SMILES | SEPTTR in vivo 1 Day Protectant
28 | COc1ccnc(C(=O)N[C@H]2COC(=O)[C@H](Cc3ccccc3)[C@@H](OC(=O)C(C)C)[C@H](C)OC2=O)c1OC(=O)C1CC1 [Compound 601] | + +

Same assay, conditions: Zymoseptoria tritici, 24 h, 100 ppm spray, wheat, 24 hour protectant; control of fungal infection vs untreated plants; read-out: SEPTTR in vivo 1 Day Protectant

Row | SMILES | pest or weed control at 100 ppm
29 | COc1ccnc(C(=O)Nc2cccc(C(=O)Nc3ccc(C(F)(F)F)cc3)c2)c1O [Compound 450] | 25 to 74%
30 | COc1ccnc(C(=O)N[C@H]2CC(=O)OCC(NC(=O)OC(C)(C)C)COC2=O)c1O (stereo partly drawn) [Compound 379] | 25 to 74%

Tested on: Leptosphaeria nodorum—LEPTNO
Assay: Glume Blotch of Wheat, in vivo whole plant, 24 Hour Protectant
Conditions: 100 ppm spray, wheat, 24 hour protectant, % control of fungal infection vs untreated plants

Row | SMILES | LEPTNO in vivo 1 Day Protectant
31 | COc1ccnc(C(=O)N[C@H]2COC(=O)[C@H](Cc3ccccc3)[C@@H](OC(=O)C(C)C)[C@H](C)OC2=O)c1OC(=O)C1CC1 [Compound 601] | + +

Same assay, conditions: Leptosphaeria; 100 ppm spray, wheat, 24 hour protectant; control of fungal infection vs untreated plants; read-out: LEPTNO in vivo 1 Day Protectant

Row | SMILES | pest or weed control at 100 ppm
32 | COc1ccnc(C(=O)Nc2cccc(C(=O)Nc3ccc(C(F)(F)F)cc3)c2)c1O [Compound 450] | 25 to 74%
33 | COc1ccnc(C(=O)N[C@H]2CC(=O)OCC(NC(=O)OC(C)(C)C)COC2=O)c1O (stereo partly drawn) [Compound 379] | 25 to 74%

Tested on: not given
Assay: not given
Conditions: not given

Row | SMILES | melting point
34 | COc1ccnc(C(=O)N[C@H]2COC(=O)[C@H](Cc3ccccc3)[C@@H](OC(=O)C(C)C)[C@H](C)OC2=O)c1OC(=O)C1CC1 [Compound 601] | 195 to 196 °C
35 | COc1ccnc(C(=O)Nc2cccc(C(=O)Nc3ccc(C(F)(F)F)cc3)c2)c1O [Compound 450] | > 260 °C
36 | COc1ccnc(C(=O)N[C@H]2CC(=O)OCC(NC(=O)OC(C)(C)C)COC2=O)c1O (stereo partly drawn) [Compound 379] | 118 to 121 °C
